One may read the inhibition as the change of the read-out against control, counted positive when it falls. Lower therefore signals a response near the control. Usually Ki stands for the equilibrium dissociation constant of an inhibitor or competing ligand from its target. Low readings indicate a stronger hold on the target, high ones a looser hold on the target.

The values below come from ChEMBL document CHEMBL4364348, “Divalent cannabinoid-1 receptor ligands: A linker attachment point survey of SR141716A for development of high-affinity CB1R molecular probes” (Bioorg Med Chem Lett, 2019).

In assay [1] the target is T1, Cannabinoid receptor 1 (Homo sapiens, UniProt P21554). The experiment in a line: Displacement of [3H]CP55940 from human CB1R in HEK293 cell membranes at 10 uM after 60 mins liquid scintillation analysis relative to control.
T1 sequence (P21554 whole entry): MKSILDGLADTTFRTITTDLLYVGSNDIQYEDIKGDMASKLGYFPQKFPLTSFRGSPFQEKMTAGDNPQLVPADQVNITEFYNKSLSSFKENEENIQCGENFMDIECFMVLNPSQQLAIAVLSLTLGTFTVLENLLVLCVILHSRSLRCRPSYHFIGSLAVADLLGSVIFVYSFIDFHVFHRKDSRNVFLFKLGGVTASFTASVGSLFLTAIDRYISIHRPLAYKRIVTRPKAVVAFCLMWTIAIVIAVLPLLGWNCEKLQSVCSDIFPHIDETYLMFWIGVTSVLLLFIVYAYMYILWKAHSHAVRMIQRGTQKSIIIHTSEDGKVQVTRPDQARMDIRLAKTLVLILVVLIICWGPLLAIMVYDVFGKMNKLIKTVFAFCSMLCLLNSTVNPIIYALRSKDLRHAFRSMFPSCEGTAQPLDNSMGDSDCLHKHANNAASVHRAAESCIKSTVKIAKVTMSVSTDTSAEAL
The target in assay [2] is T1, Cannabinoid receptor 1. The experiment in a line: Displacement of [3H]CP55940 from human CB1R in HEK293 cell membranes after 60 mins liquid scintillation analysis. A general note: Loss of bound radioactivity is the signal in a displacement assay; it reports binding, not function.
The target of another assay is D(2) dopamine receptor (Homo sapiens, UniProt P14416). The experiment in a line: Binding affinity to human D2R.
Sequence of D(2) dopamine receptor (P14416 whole entry): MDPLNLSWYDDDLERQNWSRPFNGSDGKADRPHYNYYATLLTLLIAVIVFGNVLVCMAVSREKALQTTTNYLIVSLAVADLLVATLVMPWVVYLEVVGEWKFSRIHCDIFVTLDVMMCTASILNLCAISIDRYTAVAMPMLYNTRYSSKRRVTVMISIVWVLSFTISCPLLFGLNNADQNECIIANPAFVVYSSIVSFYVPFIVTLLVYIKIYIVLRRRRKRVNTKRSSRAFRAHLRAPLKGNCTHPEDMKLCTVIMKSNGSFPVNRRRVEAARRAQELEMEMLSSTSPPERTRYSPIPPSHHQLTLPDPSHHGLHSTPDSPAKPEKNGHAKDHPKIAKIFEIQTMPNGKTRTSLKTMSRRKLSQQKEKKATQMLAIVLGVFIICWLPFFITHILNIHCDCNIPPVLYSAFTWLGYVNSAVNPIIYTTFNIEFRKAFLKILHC

In turn, `CC(=O)N[C@@H](CCCCNC(=O)COCCOCCNC(=O)COCCOCCNC(=O)c1nn(-c2ccc(Cl)cc2Cl)c(-c2ccc(Cl)cc2)c1C)C(=O)NCCCC[C@H](NC(C)=O)C(=O)NCCCCCCNC(=O)c1nn(-c2ccc(Cl)cc2Cl)c(-c2ccc(Cl)cc2)c1C` had an inhibition on Cannabinoid receptor 1 [1] of 29%.

In the case of `Cc1c(C(=O)NN2CCCCC2)nn(-c2ccc(Cl)cc2Cl)c1-c1ccc(C#CCCOC(=O)CCCCCNC(=S)Nc2ccc3c(c2)C(=O)OC32c3ccc(O)cc3Oc3cc(O)ccc32)cc1`, at Cannabinoid receptor 1 [2], the affinity corresponds to a Ki of 260 nM. Regarding `CCCN(CCc1ccc(NC(=O)CCC(=O)NCCCC[C@H](NC(C)=O)C(=O)NCCCC[C@H](NC(C)=O)C(=O)NCCCCCCNC(=O)c2nn(-c3ccc(Cl)cc3Cl)c(-c3ccc(Cl)cc3)c2C)cc1)C1CCc2c(O)cccc2C1` (some centres undefined), the inhibition at Cannabinoid receptor 1 [1] was found to be 62%. The same molecule came in with an inhibition constant (Ki) on D(2) dopamine receptor of 0.84 nM.

For the molecule `CNC(=O)c1ccc(-c2ccc(-c3c(C)c(C(=O)NN4CCCCC4)nn3-c3ccc(Cl)cc3Cl)cc2)cc1`, at Cannabinoid receptor 1 [1], the inhibition is 55%. Molecule `Cc1c(C(=O)NN2CCCCC2)nn(-c2ccc(Cl)cc2Cl)c1-c1ccc(C#CCCOC(=O)CCCCCNC(=O)OC(C)(C)C)cc1` yielded an inhibition on Cannabinoid receptor 1 [1] of 79%. Also, the affinity at Cannabinoid receptor 1 [2], expressed as Ki, was 106 nM. In turn, `CCCN(CCc1ccc(NC(=O)CCC(=O)NCCCCCC(=O)NCc2ccc(C(=O)NCCCCCC(=O)NCCCCCCNC(=O)c3nn(-c4ccc(Cl)cc4Cl)c(-c4ccc(Cl)cc4)c3C)cc2)cc1)C1CCc2c(O)cccc2C1` (centres undefined) showed an inhibition on Cannabinoid receptor 1 [1] of 33%. On D(2) dopamine receptor, this molecule yielded an inhibition constant Ki of 2.2 nM. Take `Cc1c(C(=O)NN2CCCCC2)nn(-c2ccc(Cl)cc2Cl)c1-c1ccc(-c2ccc(C(=O)O)cc2)cc1`: the inhibition on Cannabinoid receptor 1 [1] was found to be 66%. As to `CNC(=O)CCCCCn1nc(C(=O)NN2CCCCC2)c(C)c1-c1ccc(Cl)cc1`, the inhibition at Cannabinoid receptor 1 [1] worked out at 3%. For `COC(=O)CCCCCCCCCCNC(=O)CCCCCn1nc(C(=O)NN2CCCCC2)c(C)c1-c1ccc(Cl)cc1`, the inhibition on Cannabinoid receptor 1 [1] was 13%. The molecule `COC(=O)CCCCCNC(=O)CCCCCn1nc(C(=O)NN2CCCCC2)c(C)c1-c1ccc(Cl)cc1` had an inhibition on Cannabinoid receptor 1 [1] of 33%.

On Cannabinoid receptor 1 [1], `Cc1c(C(=O)NN2CCCCC2)nn(-c2ccc(Cl)cc2Cl)c1-c1ccc(C#CCCO)cc1` displayed an inhibition of 98%. For the same molecule, at Cannabinoid receptor 1 [2], affinity was put at a Ki of 180 nM. The molecule `COC(=O)CCCCCNC(=O)c1ccc(-c2ccc(-c3c(C)c(C(=O)NN4CCCCC4)nn3-c3ccc(Cl)cc3Cl)cc2)cc1` had an inhibition on Cannabinoid receptor 1 [1] of 49%. Molecule `COC(=O)CCCCCNC(=O)c1nn(-c2ccc(Cl)cc2Cl)c(-c2ccc(Cl)cc2)c1C` gave a Ki on Cannabinoid receptor 1 [2] of 13 nM.

Take `CC(=O)NCCOCCOCC(=O)NCCCC[C@H](NC(C)=O)C(=O)NCCCC[C@H](NC(C)=O)C(=O)NCCCCCCNC(=O)c1nn(-c2ccc(Cl)cc2Cl)c(-c2ccc(Cl)cc2)c1C`: the inhibition on Cannabinoid receptor 1 [1] was 37%. For the molecule `CCCN(CCc1ccc(NC(=O)CCC(=O)NCCCCCC(=O)NCc2ccc(C(=O)NCCCCCC(=O)NCCCCCC(=O)NCc3ccc(C(=O)NCCCCCC(=O)NCCCCCCNC(=O)c4nn(-c5ccc(Cl)cc5Cl)c(-c5ccc(Cl)cc5)c4C)cc3)cc2)cc1)C1CCc2c(O)cccc2C1` (centres undefined), the inhibition at Cannabinoid receptor 1 [1] was 0%. In addition, on D(2) dopamine receptor, the Ki amounted to 4.2 nM. For `Cc1c(C(=O)NN2CCCCC2)nn(CCCCCC(=O)O)c1-c1ccc(Cl)cc1`, the inhibition at Cannabinoid receptor 1 [1] came to 10%. The same measure, in the same setting: as for `CC(=O)NCCCC[C@H](NC(C)=O)C(=O)NCCCC[C@H](NC(C)=O)C(=O)NCCCCCCNC(=O)c1nn(-c2ccc(Cl)cc2Cl)c(-c2ccc(Cl)cc2)c1C`, the figure is 41%. At Cannabinoid receptor 1 [1], `CC(=O)N[C@@H](CCCCNC(=O)COCCOCCNC(=O)c1nn(-c2ccc(Cl)cc2Cl)c(-c2ccc(Cl)cc2)c1C)C(=O)NCCCC[C@H](NC(C)=O)C(=O)NCCCCCCNC(=O)c1nn(-c2ccc(Cl)cc2Cl)c(-c2ccc(Cl)cc2)c1C` showed an inhibition of 23%. At Cannabinoid receptor 1 [1], `Cc1c(C(=O)NN2CCCCC2)nn(-c2ccc(Cl)cc2Cl)c1-c1ccc(C#CCCOCCCCCC(=O)OC(C)(C)C)cc1` registered an inhibition of 97%. On Cannabinoid receptor 1 [2], this molecule registered an inhibition constant (Ki) of 45 nM. Consider `Cc1c(C(=O)NN2CCCCC2)nn(-c2ccc(Cl)cc2Cl)c1-c1ccc(C#CCCOC(=O)CCCCCCCCCCNC(=S)Nc2ccc3c(c2)C(=O)OC32c3ccc(O)cc3Oc3cc(O)ccc32)cc1`, for which affinity at Cannabinoid receptor 1 [2] was put at a Ki of 2110 nM. With `Cc1c(C(=O)NN2CCCCC2)nn(CCCCCC(=O)NCCCCCC(=O)O)c1-c1ccc(Cl)cc1`, on Cannabinoid receptor 1 [1], the inhibition amounted to 13%. `CC(=O)N[C@@H](CCCCNC(=O)c1nn(-c2ccc(Cl)cc2Cl)c(-c2ccc(Cl)cc2)c1C)C(=O)NCCCC[C@H](NC(C)=O)C(=O)NCCCCCCNC(=O)c1nn(-c2ccc(Cl)cc2Cl)c(-c2ccc(Cl)cc2)c1C` came in with an inhibition on Cannabinoid receptor 1 [1] of 11%. At Cannabinoid receptor 1 [1], `Cc1c(C(=O)NCCCCCCNC(=O)CCCCCNC(=O)c2ccc(CNC(=O)CCCCCNC(=O)c3nn(-c4ccc(Cl)cc4Cl)c(-c4ccc(Cl)cc4)c3C)cc2)nn(-c2ccc(Cl)cc2Cl)c1-c1ccc(Cl)cc1` yielded an inhibition of 29%. The molecule `CCCN(CCc1ccc(NC(=O)CCC(=O)NCCOCCOCC(=O)NCCCC[C@H](NC(C)=O)C(=O)NCCCC[C@H](NC(C)=O)C(=O)NCCCCCCNC(=O)c2nn(-c3ccc(Cl)cc3Cl)c(-c3ccc(Cl)cc3)c2C)cc1)C1CCc2c(O)cccc2C1` (some centres undefined) displayed an inhibition on Cannabinoid receptor 1 [1] of 44%. At D(2) dopamine receptor, this molecule displayed a Ki of 2.4 nM. As to `CC(=O)NCCOCCOCC(=O)NCCOCCOCC(=O)NCCCC[C@H](NC(C)=O)C(=O)NCCCC[C@H](NC(C)=O)C(=O)NCCCCCCNC(=O)c1nn(-c2ccc(Cl)cc2Cl)c(-c2ccc(Cl)cc2)c1C`, the inhibition at Cannabinoid receptor 1 [1] came out at 23%. Consider `Cc1c(C(=O)NCCCCCCCCCCC(=O)O)nn(-c2ccc(Cl)cc2Cl)c1-c1ccc(Cl)cc1`, for which, on Cannabinoid receptor 1 [1], the inhibition stood at 43%. The molecule `COC(=O)CCCCCCCCCCNC(=O)c1nn(-c2ccc(Cl)cc2Cl)c(-c2ccc(Cl)cc2)c1C` returned an inhibition at Cannabinoid receptor 1 [1] of 5%. For `CC(=O)NCCCCCC(=O)NCc1ccc(C(=O)NCCCCCC(=O)NCCCCCC(=O)NCc2ccc(C(=O)NCCCCCC(=O)NCCCCCCNC(=O)c3nn(-c4ccc(Cl)cc4Cl)c(-c4ccc(Cl)cc4)c3C)cc2)cc1`, the inhibition on Cannabinoid receptor 1 [1] came to 0%. The same measure, in the same setting: the same measure for `Cc1c(C(=O)NN2CCCCC2)nn(CCCCCC(=O)OC(C)(C)C)c1-c1ccc(Cl)cc1`: 37%; for `Cc1c(C(=O)NCCCCCCNC(=O)CCCCCNC(=O)c2ccc(CNC(=O)CCCCCNC(=O)CCCCCNC(=O)c3ccc(CNC(=O)CCCCCNC(=O)c4nn(-c5ccc(Cl)cc5Cl)c(-c5ccc(Cl)cc5)c4C)cc3)cc2)nn(-c2ccc(Cl)cc2Cl)c1-c1ccc(Cl)cc1`: 0%; for `COC(=O)CCCCCCCCCCNC(=O)c1ccc(-c2ccc(-c3c(C)c(C(=O)NN4CCCCC4)nn3-c3ccc(Cl)cc3Cl)cc2)cc1`: 0%.

On to `CC(=O)NCCCCCC(=O)NCc1ccc(C(=O)NCCCCCC(=O)NCCCCCCNC(=O)c2nn(-c3ccc(Cl)cc3Cl)c(-c3ccc(Cl)cc3)c2C)cc1`, for which, at Cannabinoid receptor 1 [1], the inhibition stood at 23%.

`CC(=O)OCCC#Cc1ccc(-c2c(C)c(C(=O)NN3CCCCC3)nn2-c2ccc(Cl)cc2Cl)cc1`: the inhibition on Cannabinoid receptor 1 [1] amounted to 100%. The molecule also gave a Ki on Cannabinoid receptor 1 [2] of 11 nM. `Cc1c(C(=O)NN2CCCCC2)nn(-c2ccc(Cl)cc2Cl)c1-c1ccc(C#CCCOC(=O)CCCCCN)cc1` returned an inhibition at Cannabinoid receptor 1 [1] of 59%. Moreover, the inhibition constant Ki at Cannabinoid receptor 1 [2] was 1810 nM. For the molecule `COC(=O)c1ccc(-c2ccc(-c3c(C)c(C(=O)NN4CCCCC4)nn3-c3ccc(Cl)cc3Cl)cc2)cc1`, the inhibition constant (Ki) on Cannabinoid receptor 1 [2] was 131 nM.

For `CCCN(CCc1ccc(NC(=O)CCC(=O)NCCOCCOCC(=O)NCCOCCOCC(=O)NCCCC[C@H](NC(C)=O)C(=O)NCCCC[C@H](NC(C)=O)C(=O)NCCCCCCNC(=O)c2nn(-c3ccc(Cl)cc3Cl)c(-c3ccc(Cl)cc3)c2C)cc1)C1CCc2c(O)cccc2C1` (some centres undefined), at Cannabinoid receptor 1 [1], the inhibition amounted to 33%. For the same molecule, the affinity at D(2) dopamine receptor corresponds to a Ki of 1.1 nM. `Cc1c(C(=O)NN2CCCCC2)nn(-c2ccc(Cl)cc2Cl)c1-c1ccc(C#CCCOC(=O)CCCCCCCCCCN)cc1` gave an inhibition at Cannabinoid receptor 1 [1] of 87%. Besides, on Cannabinoid receptor 1 [2], the affinity, expressed as Ki, was 97 nM. Turning to `CCOC(=O)c1ccc(CNC(=O)c2nn(-c3ccc(Cl)cc3Cl)c(-c3ccc(Cl)cc3)c2C)cc1`, the Ki at Cannabinoid receptor 1 [2] was determined as 8.2 nM.
